The source made the active and inactive calls. No cut-off for these calls is given here.

For assay [1], the target named is T1, Cytohesin-2 (Homo sapiens) (UniProt Q99418).
T1 sequence (whole entry): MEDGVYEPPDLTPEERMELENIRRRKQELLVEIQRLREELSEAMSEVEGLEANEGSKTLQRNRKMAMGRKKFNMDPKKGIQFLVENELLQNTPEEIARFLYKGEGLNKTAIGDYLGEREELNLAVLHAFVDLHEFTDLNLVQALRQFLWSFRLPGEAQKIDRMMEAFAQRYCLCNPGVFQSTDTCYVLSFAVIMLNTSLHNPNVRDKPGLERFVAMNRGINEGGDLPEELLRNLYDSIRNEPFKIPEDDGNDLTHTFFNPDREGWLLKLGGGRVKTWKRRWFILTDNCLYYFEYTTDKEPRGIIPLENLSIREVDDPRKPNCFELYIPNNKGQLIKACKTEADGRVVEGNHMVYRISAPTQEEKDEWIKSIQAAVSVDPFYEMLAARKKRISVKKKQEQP
Kind of assay: Inhibition of human Arno Sec7 domain […] delta17 Arf1 (17 to 181) at 1 mM after 15 mins by BODIPY-GTP based time resolved fluorescence assay relative to control.

The target of assay [2] is T2, Cytohesin-2 (Homo sapiens, UniProt Q99418).
T2 sequence (Q99418 whole entry): T1 sequence (whole entry)
Kind of assay: Binding affinity to human Arno Sec7 domain immobilized on CAP sensor chip after 15 mins by […].

Assay [3] concerns the target T1, Cytohesin-2 (Homo sapiens). As to the kind of experiment: Binding affinity to human Arno Sec7 domain immobilized on CAP sensor chip at 250 uM by surface plasmon resonance analysis.
The target in assay [4] is T1, Cytohesin-2 (Homo sapiens). As to the kind of experiment: Binding affinity to human Arno Sec7 domain immobilized on CAP sensor chip at 1 mM after 15 mins by […].
Assay [5] concerns the target T1, Cytohesin-2 (Homo sapiens). Kind of assay: Inhibition of human Alexa 488 labeled Arno Sec7 domain-mediated promiscuous aggregator activity in delta17 Arf1 (17 to 181) at 1 to 100 uM by fluorescence anisotropy assay. A general note: Polarisation of emitted light reports the rotation of a fluorescent probe.
In assay [6] the target is T2, Cytohesin-2. Kind of assay: Inhibition of human Arno Sec7 domain-mediated nucleotide exchange in delta17 Arf1 (17 to 181) by BODIPY-GTP based time resolved fluorescence assay. Conditions: read-out: Ki(app).
For assay [7], the target named is T1, Cytohesin-2 (Homo sapiens). Kind of assay: Inhibition of human Arno Sec7 domain-mediated nucleotide exchange in delta17 Arf1 (17 to 181) at 2 mM by BODIPY-GTP based time resolved fluorescence assay relative to control.
Assay [8] concerns the target T1, Cytohesin-2 (Homo sapiens). Kind of assay: Inhibition of human Arno Sec7 domain-mediated nucleotide exchange in delta17 Arf1 (17 to 181) at 1 mM by BODIPY-GTP based time resolved fluorescence assay relative to control.
The target of assay [9] is T1, Cytohesin-2 (Homo sapiens). Kind of assay: Inhibition of human Alexa 488 labeled Arno Sec7 domain-mediated promiscuous aggregator activity in delta17 Arf1 (17 to 181) at 100 uM by fluorescence anisotropy assay.
Assay [10] has as its target T1, Cytohesin-2 (Homo sapiens). Kind of assay: Inhibition of human Alexa 488 labeled Arno Sec7 domain-mediated promiscuous aggregator activity in delta17 Arf1 (17 to 181) at >20 uM by fluorescence anisotropy assay.

Broadly, the inhibition is the drop in the measured response relative to a control, in per cent. Usually Kd stands for the equilibrium constant for the complex coming apart. `Cc1cc(O)cc(C)c1NS(=O)(=O)c1ccccc1`: the inhibition was 30% in [1] and 34.6% in assay [7]. Further, binding in assay [2] was characterised by a dissociation constant (Kd) of 500 µM. For the same compound, the result in assay [3] and in assay [4] was Active. Moreover, in assay [5], the inhibition result is “inactive”. Further, in assay [6], the Ki was determined as 3720 µM.
Take `COc1ccc(S(=O)(=O)Nc2c(C)cc(O)cc2C)cc1`: the inhibition stood at 35% in assay [1] and 32.1% in assay [8]. For the same compound, the Ki in [6] worked out at 1610 µM.
Consider `CC(C)(C)c1ccc(C(=O)NCc2ccco2)cc1`, for which the inhibition entry in [9] was “Active”.
For `COc1cc(C(=O)Nc2c(C)cc(O)cc2C)cc(OC)c1OC`, in assay [4], the outcome was Active. In assay [7], the inhibition is 9.9%.
With `CCN(CC)Cc1cc(NC(C)=O)ccc1O`, the result in assay [3] was Active. For the same compound, the result in [4] was inactive.
In the case of `Cc1cc(O)cc(C)c1NC(=O)c1cccc([N+](=O)[O-])c1`, the outcome in assay [4] was Active. Besides, the inhibition in assay [7] was 16%.
Take `O=C1CNC(=O)N1C12CC3CC(CC(C3)C1)C2`: the outcome in assay [3] was Active. Further, in assay [4], the outcome was inactive.
`Cc1cc(NS(=O)(=O)c2ccccc2)cc(C)c1O`: the Ki in assay [6] worked out at 5120 µM. The inhibition in assay [7] was determined as 31.2%.
In turn, `Cc1ccc(S(=O)(=O)Nc2c(C)cc(O)cc2C)cc1` yielded an inhibition in [8] of 32.7%. In addition, the Ki in assay [6] came to 1910 µM.
Take `Clc1ccccc1C(c1ccccc1)(c1ccccc1)n1ccnc1`: the inhibition entry in [10] was “Active”.
Compound `Cc1ccc(S(=O)(=O)Nc2cc(C)c(O)cc2C)cc1` gave an inhibition in [8] of 66.7%.
As to `Cc1ccc(C)c(-c2csc(N)n2)c1`, the result in assay [3] and in [4] was Active. For the same compound, the inhibition result in [5] was “inactive”. For the same compound, the inhibition in [7] came to 22.6%.
For the compound `Cc1cc(O)cc(C)c1NS(=O)(=O)c1ccc([N+](=O)[O-])cc1`, in assay [8], the inhibition is 58.4%. Besides, the result in assay [4] was Active. For the same compound, the Ki in [6] stood at 540 µM.
The compound `Cc1cc(C)c(S(=O)(=O)Nc2ccc(O)cc2C)c(C)c1` gave an inhibition in assay [8] of 51.5%. Also, the Ki in assay [6] is 980 µM.
`Cc1c(O)ccc(NS(=O)(=O)c2ccccc2)c1C` had an inhibition in assay [7] of 24.2%.
The compound `O=S(=O)(Nc1ccccc1O)c1ccccc1` displayed an inhibition in assay [8] of 21.6%. Besides, the outcome in [4] was inactive.
With `Cc1cc(O)ccc1NS(=O)(=O)c1cccs1`, the result in assay [3] and in assay [4] was Active. Also, the inhibition entry in assay [5] was “inactive”. The compound also returned an inhibition in assay [7] of 16.4%.
Regarding `Cc1c(C(N)=O)sc(N)c1C(=O)OC(C)C`, the outcome in assay [3] was inactive. Besides, in assay [4], the outcome was Active. In [5], the inhibition entry is “inactive”. For the same compound, in assay [7], the inhibition came to 37.9%.
